Experimental data published in publication PMC9888480, “Carboranyl-1,8-naphthalimide intercalators induce lysosomal membrane permeabilization and ferroptosis in cancer cell lines” (Journal of Enzyme Inhibition and Medicinal Chemistry, 2023).
Read-outs that look alike come from different tables or passages of the source.

Tests used:
[1] = tested on: ct-DNA; assay: UV–vis spectra titration with ct-DNA (binding constant Kb); parameters: species or system calf; conditions: for Kb compared to that of mitonafide: mitonafide Kb 2.54 × 10^5
Procedure: The measurements were performed by adding aliquots of DMSO stock solution of the tested compounds to the buffer solution (pH 7.4, 20 mM, 50 mM NaCl, Tris–HCl buffer, DMSO content of the final solutions = 0.54–0.65%) to the final concentration 10 µM. The tested compounds were incubated for 5 min, with increasing concentrations ranging from 0 to 15 µM of ct-DNA at 37 °C. Then, the UV–vis absorption spectra between 300 and 500 nm were recorded using a GBC Cintra10 UV–VIS spectrometer equipped with a GBC Thermocell Peltier Power Supply with the use of a 1-cm-path-length cell. The binding constant was calculated according to the following equation[70]: A0/A−A0= εG/εH−G−εG+ εG/εH−G−εG × 1/Kb[DNA] where Kb is the binding constant; A0 and a are absorbances of the free tested compound and the apparent one; εG and εH–G are their coefficient, respectively; [DNA] is the concentration of DNA in base pairs. The slope to intercept ratio of the plot between A0/A − A0 and 1/[DNA] yielded the binding constant.

[2] = tested on: ct-DNA; assay: Circular dichroism (CD) measurements of ct-DNA; assay type: binding, calf; conditions: increasing concentration of conjugate, r = 0.1–0.5, cacodylate buffer pH 7.0
Procedure: The measurements were performed by adding aliquots of DMSO stock solution of the tested compounds to the buffer solution (pH 7.0, 20 mM, cacodylate buffer, DMSO content of the final solutions = 0.22–1.30%). Changes in the CD spectrum of ct-DNA upon the addition of compound were measured at different molar ratios r = [compound]/[ct-DNA]. CD spectra were recorded on a JASCO J-815 CD spectrometer with a JASCO PFD-425S Peltier thermostated cell holder (JASCO, Tokyo, Japan) by using a square quartz cuvette of path length 0.5 cm (0.5 ml) in the 230–400 nm region. The CD profiles reported were an average of three successive scans with a scan time of 200 nm per minute and an appropriately corrected baseline. Temperature was maintained at 20 °C during the experiment.

[3] = tested on: ct-DNA; assay: Melting temperature (Tm) measurements of ct-DNA; assay type: binding, calf; conditions: r = [compound]/[ct-DNA] = 0.3, cacodylate buffer pH 7.0; Tm of free ct-DNA 74 °C; error ±0.5 °C
Procedure: The measurements were carried out by adding aliquots of DMSO stock solution of the tested compounds to the buffer solution (pH 7.0, 20 mM, cacodylate buffer, DMSO content of the final solution = 0.33–0.39%). Tm curves were collected at r = 0.3 (r = [compound]/[ct-DNA]) to assure the dominant binding mode. Thermal melting curves were plotted considering the absorption change at 260 nm as a function of temperature using a GBC Cintra10 UV–VIS spectrometer (Dandenong, Australia) equipped with a GBC Thermocell Peltier Power Supply (Dandenong, Australia) with the use of a 1-cm-path-length cell. The absorbance of the samples was monitored at 260 nm from 35 to 95 °C with a heating rate of 1 °C/min. Tm values are the midpoints or the transition curves determined from the maximum of the first derivative. ΔTm values were calculated by subtracting the Tm of the free nucleic acid from the Tm of the sample. All ΔTm values reported in the study were measured in triplicate. The error in ΔTm was ±0.5 °C.

[4] = tested on: HepG2; assay: In vitro cytotoxic activity, MTT assay; assay type: cell-based, human; conditions: concentration required to inhibit cell growth by 50%
Description: The in vitro cytotoxic activity of the obtained carborane-1,8-naphthalimide conjugates was investigated by examining their cytotoxic effects using the MTT (3–(4,5-dimethylthiazol-2-yl)-2,5-diphenyltetrazolium bromide) dye assay[38]^,[39] against the human cancer cell line HepG2 established from hepatocellular carcinoma (for compounds 12–19 and 30–37) and against human lung fibroblasts (MRC-5) (for compounds 34–37). The IC50 values—the drug concentration (µM) required to inhibit cell growth by 50%—determined for the synthesised compounds are summarised in Table 2.
The cytotoxic properties of the synthesised compounds were evaluated using the human hepatocellular carcinoma cell line (HepG2) and human lung fibroblasts (MRC-5). The HepG2 and MRC-5 cell lines were purchased from American Type Culture Collection (ATCC, Manassas, VA, USA). The HepG2 cells were propagated in Eagle’s minimal essential medium (EMEM, ATCC, Manassas, VA, USA), supplemented with 10% inactivated foetal bovine serum (FBS, Life Technologies, Warsaw, Poland) and 100 units/ml penicillin G with […] streptomycin (Life Technologies, Warsaw, Poland). The cells were incubated at 37 °C in a humidified atmosphere containing 5% CO2. Upon reaching 80–90% confluency, the cells were harvested with 0.25% trypsin in 1 mM EDTA (Life Technologies, Warsaw, Poland) and transferred to 96-well microplates at 2 × 10^4 cells/well. After overnight incubation of cells at 37 °C in a humidified atmosphere containing 5% CO2, the culture medium was removed and replaced with a freshly prepared solution of compounds in the culture medium or medium itself as the control group. The stock solutions of each compound were prepared in DMSO at a concentration of 100 mM and were diluted with the growth medium supplemented with 10% FBS to ensure drug dissolution to obtain concentrations ranging from 0.1 to 1000 µM. Cytotoxicity was evaluated using the MTT assay. After incubation with the compounds, the cells were treated with MTT dye solution (5 mg/ml) for 2 h and lysed with a solvent solution containing DMF (45 ml), sodium dodecylsulfate (13.5 g), and distilled water (55 ml). After overnight incubation at 37 °C, optical density at 550 nm, with a reference wavelength of 670 nm, was measured in an ELISA reader (VarioskanLux, Thermo Scientific, Waltham, MA, USA). All determinations were carried out in triplicate. Results were calculated as the percentage of control group viability. The IC50 values of the compounds were calculated in an Excel add-in ED50V10.

[5] = tested on: HepG2; parameters: method as in PMID 31776032; conditions: footnote of Table 2, reference compounds; cited from earlier work
[6] = tested on: ct-DNA; parameters: method as in PMID 33803403; conditions: unmodified mitonafide and pinafide; cited from earlier work
[7] = target: human topoisomerase IIα; parameters: method as in PMID 35562989; conditions: earlier study of 4-carboranyl-1,8-naphthalimides; read-out: anti-Topo II activity IC50; cited from earlier work
[8] = tested on: HepG2 cells; parameters: method as in PMID 31776032; conditions: earlier N-imide derivatives; cited from earlier work

Compound	Kb compared to that of mitonafide [1]	change in the CD spectra of ct-DNA [2]	ΔTm ct-DNA [3] [°C]	IC50 [4] [µM]	other results
4-[(2-[3–(1,2-Dicarba-closo-dodecaborane-1-yl)propanamido]ethyl)amino]-3-nitro-N-[2-(N-pyrrolidinyl)ethyl]-1,8-naphthalimide [Compound 14]	similar	disturbed	3.33	8.97 ± 1.13	–
4-[(2-[3–(1,2-Dicarba-closo-dodecaborane-1-yl)propanamido]ethyl)amino]-N-[2-(dimethylamino)ethyl]-3-nitro-1,8-naphthalimide [Compound 12]	similar	did not cause any appreciable change	3.33	21.7 ± 0.95	–
4-[(2-[3–(1,7-Dicarba-closo-dodecaborane-1-yl)propanamido]ethyl)amino]-3-nitro-N-[2-(N-pyrrolidinyl)ethyl]-1,8-naphthalimide [Compound 15]	similar	disturbed	5.00	9.23 ± 0.35	–
4-[(2-[3–(1,7-Dicarba-closo-dodecaborane-1-yl)propanamido]ethyl)amino]-N-[2-(dimethylamino)ethyl]-3-nitro-1,8-naphthalimide [Compound 13]	–	did not cause any appreciable change	3.67	9.2 ± 0.68	–
4-[(2-[(1,2-Dicarba-closo-dodecaborane-1-yl)ethylamino]ethyl)amino]-3-nitro-N-[2-(N-pyrrolidinyl)ethyl]-1,8-naphthalimide [Compound 32]	approximately 1.5 fold	disturbed	0.33	8.12 ± 0.88	–
4-[(2-[(1,2-Dicarba-closo-dodecaborane-1-yl)ethylamino]ethyl)amino]-N-[2-(dimethylamino)ethyl]-3-nitro-1,8-naphthalimide [Compound 30]	–	disturbed	3.33	4.51 ± 0.66	–
4-[(2-[(1,7-Dicarba-closo-dodecaborane-1-yl)ethylamino]ethyl)amino]-3-nitro-N-[2-(N-pyrrolidinyl)ethyl]-1,8-naphthalimide [Compound 33]	–	did not cause any appreciable change	0.33	20.6 ± 3.83	changes in the absorbance on addition of ct-DNA ([1]; UV–vis, 1.25–15 µM ct-DNA, 10 µM compound): changes in the absorbance were not observed
4-[(2-[(1,7-Dicarba-closo-dodecaborane-1-yl)ethylamino]ethyl)amino]-N-[2-(dimethylamino)ethyl]-3-nitro-1,8-naphthalimide [Compound 31]	similar	did not cause any appreciable change	1.67	11.6 ± 0.62	bathochromic effect ([1]; UV–vis, addition of 1.25–15 µM ct-DNA to 10 µM compound): 6 nm
4-[(6-[3–(1,2-Dicarba-closo-dodecaborane-1-yl)propanamido]hexyl)amino]-3-nitro-N-[2-(N-pyrrolidinyl)ethyl]-1,8-naphthalimide [Compound 18]	approximately 1.5 fold	–	–	4.79 ± 0.8	–
4-[(6-[3–(1,2-Dicarba-closo-dodecaborane-1-yl)propanamido]hexyl)amino]-N-[2-(dimethylamino)ethyl]-3-nitro-1,8-naphthalimide [Compound 16]	approximately 1.5 fold	–	–	5.12 ± 0.87	–
4-[(6-[3–(1,7-Dicarba-closo-dodecaborane-1-yl)propanamido]hexyl)amino]-3-nitro-N-[2-(N-pyrrolidinyl)ethyl]-1,8-naphthalimide [Compound 19]	–	–	–	5.86 ± 0.56	–
4-[(6-[3–(1,7-Dicarba-closo-dodecaborane-1-yl)propanamido]hexyl)amino]-N-[2-(dimethylamino)ethyl]-3-nitro-1,8-naphthalimide [Compound 17]	similar	–	–	8.03 ± 1.25	–
O=C1c2cccc3cc([N+](=O)[O-])cc(c23)C(=O)N1CCN1CCCC1 [pinafide]	–	–	–	–	IC50 [5]: 1.23 µM; ΔTm [6]: 6.50 °C
N-[2-(N-pyrrolidinyl)ethyl]-4-[(2–(3–(1,2-dicarba-closo-dodecaborane-1-yl)propanamido)ethyl)amino]-1,8-naphthalimide	–	–	–	–	IC50 [7]: 2.81 µM
N-[2-(dimethylamino)ethyl]-4-{1-[3-(1,2-dicarba-closo-dodecaborane-1-yl)propyl]-1H-1,2,3-triazol-4-yl}-1,8-naphthalimide	–	–	–	–	IC50 [7]: 0.58 µM
N-[2–(3,3′-commo-bis(1,2-dicarba-3-cobalta(III)-closo-dodecaborate-1-yl)ethyl)]-1,8-naphthalimide	–	–	–	–	intracellular ROS production (fluorescence intensity) [8]: approximately twofold increase
N-[3–(1,2-dicarba-closo-dodecaborane-1-yl)propyl]-1,8-naphthalimide	–	–	–	–	intracellular ROS production (fluorescence intensity) [8]: approximately twofold increase
N-{[2–(3,3′-commo-bis(1,2-dicarba-3-cobalta(III)-closo-dodecaborate-1-yl)ethyl]-1′-aminoethyl)}-1,8-naphthalimide]	–	–	–	–	intracellular ROS production (fluorescence intensity) [8]: approximately twofold increase
